In PubChem BioAssay (NCI):
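How tested: cells in 96-well plates exposed to compound for 48 hours at five concentrations. GI50 marks 50% less growth. TGI denotes the concentration required for complete inhibition of growth.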

Columns and labels:
Test in all cases: NCI tumour cell line growth inhibition, 48 h
[1] = test system: MDA-MB-231 breast
[2] = test system: RPMI-8226 leukemia
[3] = test system: RXF 393 renal
[4] = test system: SK-MEL-2 melanoma
[5] = test system: EKVX NSCLC
[6] = test system: SN12C renal
[7] = test system: HOP-92 NSCLC
[8] = test system: UO-31 renal
[9] = test system: SNB-75 CNS
[10] = test system: 786-0 renal
[11] = test system: OVCAR-3 ovarian
[12] = test system: CAKI-1 renal
[13] = test system: HCT-15 colon
[14] = test system: NCI-H226 lung
[15] = test system: ACHN renal
[16] = test system: SR leukemia
[17] = test system: UACC-257 melanoma
[18] = test system: HL-60(TB) leukemia
[19] = test system: U251 CNS
[20] = test system: HT29 colon
[21] = test system: SK-MEL-28 melanoma
[22] = test system: MOLT-4 leukemia
[23] = test system: COLO 205 colon
[24] = test system: MALME-3M melanoma
[25] = test system: NCI-H522 lung
[26] = test system: SNB-19 CNS
[27] = test system: HS 578T breast
[28] = test system: MCF7 breast
[29] = test system: SK-OV-3 ovarian
[30] = test system: K-562 leukemia
[31] = test system: KM12 colon
[32] = test system: NCI/ADR-RES ovarian
[33] = test system: M14 melanoma
[34] = test system: PC-3 prostate
[35] = test system: OVCAR-5 ovarian
[36] = test system: LOX IMVI melanoma
[37] = test system: HOP-62 NSCLC
[38] = test system: CCRF-CEM leukemia
[39] = test system: NCI-H23 lung
[40] = test system: DU-145 prostate
[41] = test system: SF-268 CNS
[42] = test system: MDA-MB-468 breast
[43] = test system: SF-295 CNS
[44] = test system: T-47D breast
[45] = test system: MDA-MB-435
[46] = test system: TK-10 renal
[47] = test system: SW-620 colon
[48] = test system: OVCAR-8 ovarian
[49] = test system: SF-539 CNS
[50] = test system: NCI-H460 lung
[51] = test system: A498 renal
[52] = test system: SK-MEL-5 melanoma
[53] = test system: OVCAR-4 ovarian
[54] = test system: A549 NSCLC
[55] = test system: IGROV1 ovarian
[56] = test system: UACC-62 melanoma
[57] = test system: HCC-2998 colon
[58] = test system: BT-549 breast
[59] = test system: HCT-116 colon

SMILES: CC1=C2C(=C[C@@](C)(COP(=O)(Oc3ccccc3)Oc3ccccc3)[C@@H]2O)C(=O)[C@@](C)(O)C12CC2
- GI50 [1]: 0.351 µM
- TGI [1]: 1.03 µM
- GI50 [2]: 4.56 µM
- TGI [2]: 38.9 µM
- GI50 [3]: 188 nM
- TGI [3]: 0.493 µM
- GI50 [4]: 0.246 µM
- TGI [4]: 596 nM
- GI50 [5]: 0.641 µM
- TGI [5]: 1800 nM
- GI50 [6]: 0.521 µM
- TGI [6]: 1550 nM
- GI50 [7]: 574 nM
- TGI [7]: 1.58 µM
- GI50 [8]: 460 nM
- TGI [8]: 1270 nM
- GI50 [9]: 477 nM
- TGI [9]: 1270 nM
- GI50 [10]: 0.284 µM
- TGI [10]: 857 nM
- GI50 [11]: 0.286 µM
- TGI [11]: 1080 nM
- GI50 [12]: 0.289 µM
- TGI [12]: 2170 nM
- GI50 [13]: 208 nM
- TGI [13]: 875 nM
- GI50 [14]: 723 nM
- TGI [14]: 3.84 µM
- GI50 [15]: 232 nM
- TGI [15]: 686 nM
- GI50 [16]: 402 nM
- TGI [16]: 25.1 µM
- GI50 [17]: 0.792 µM
- TGI [17]: 2310 nM
- GI50 [18]: 213 nM
- TGI [18]: 1280 nM
- GI50 [19]: 0.249 µM
- TGI [19]: 1360 nM
- GI50 [20]: 201 nM
- TGI [20]: 705 nM
- GI50 [21]: 681 nM
- TGI [21]: 1690 nM
- GI50 [22]: 439 nM
- TGI [22]: 14.6 µM
- GI50 [23]: 0.53 µM
- TGI [23]: 1200 nM
- GI50 [24]: 0.382 µM
- TGI [24]: 1000 nM
- GI50 [25]: 0.223 µM
- TGI [25]: 655 nM
- GI50 [26]: 0.63 µM
- TGI [26]: 4.93 µM
- GI50 [27]: 1.01 µM
- TGI [27]: 4.46 µM
- GI50 [28]: 141 nM
- TGI [28]: 4.69 µM
- GI50 [29]: 357 nM
- TGI [29]: 1310 nM
- GI50 [30]: 1560 nM
- TGI [30]: > 69.5 µM
- GI50 [31]: 0.628 µM
- TGI [31]: 5.82 µM
- GI50 [32]: 236 nM
- TGI [32]: 778 nM
- GI50 [33]: 0.551 µM
- TGI [33]: 1310 nM
- GI50 [34]: 397 nM
- TGI [34]: 2340 nM
- GI50 [35]: 359 nM
- TGI [35]: 1340 nM
- GI50 [36]: 0.218 µM
- TGI [36]: 0.703 µM
- GI50 [37]: 0.408 µM
- TGI [37]: 1280 nM
- GI50 [38]: 1880 nM
- TGI [38]: > 39.8 µM
- GI50 [39]: 158 nM
- TGI [39]: 384 nM
- GI50 [40]: 332 nM
- TGI [40]: 1340 nM
- GI50 [41]: 0.35 µM
- TGI [41]: 1500 nM
- GI50 [42]: 147 nM
- TGI [42]: 0.503 µM
- GI50 [43]: 0.294 µM
- TGI [43]: 1230 nM
- GI50 [44]: 0.946 µM
- TGI [44]: 5.19 µM
- GI50 [45]: 0.637 µM
- TGI [45]: 2060 nM
- GI50 [46]: 854 nM
- TGI [46]: 3.09 µM
- GI50 [47]: 1.7 µM
- TGI [47]: 18.3 µM
- GI50 [48]: 0.286 µM
- TGI [48]: 1090 nM
- GI50 [49]: 0.327 µM
- TGI [49]: 0.886 µM
- GI50 [50]: 0.234 µM
- TGI [50]: 744 nM
- GI50 [51]: 1150 nM
- TGI [51]: 4.09 µM
- GI50 [52]: 0.219 µM
- TGI [52]: 0.609 µM
- GI50 [53]: 0.355 µM
- TGI [53]: 1470 nM
- GI50 [54]: 781 nM
- TGI [54]: 3.29 µM
- GI50 [55]: 0.399 µM
- TGI [55]: 1240 nM
- GI50 [56]: 0.312 µM
- TGI [56]: 804 nM
- GI50 [57]: 0.216 µM
- TGI [57]: 639 nM
- GI50 [58]: 0.211 µM
- TGI [58]: 614 nM

SMILES: CN(C)c1nc(NCCNS(=O)(=O)c2ccc(C3=Nc4c(N)nc(N)nc4NC(c4ccccc4)C3)cc2)nc(Nc2ccc(F)cc2)n1 (stereo not given)
- GI50 [1]: 6.16 µM
- TGI [1]: 67.5 µM
- GI50 [2]: 3.32 µM
- TGI [2]: > 100 µM
- GI50 [3]: 2550 nM
- TGI [3]: 8.95 µM
- GI50 [4]: 28.5 µM
- TGI [4]: > 100000 nM
- GI50 [5]: 6.65 µM
- TGI [5]: > 100000 nM
- GI50 [6]: 7.83 µM
- TGI [6]: > 100000 nM
- GI50 [7]: 2180 nM
- TGI [7]: 9.96 µM
- GI50 [8]: > 100000 nM
- TGI [8]: > 100000 nM
- GI50 [9]: 3580 nM
- TGI [9]: > 100000 nM
- GI50 [10]: 7.88 µM
- TGI [10]: > 100000 nM
- GI50 [59]: 7.37 µM
- TGI [59]: > 100 µM
- GI50 [11]: 69.3 µM
- TGI [11]: > 100000 nM
- GI50 [12]: 9.73 µM
- TGI [12]: > 100000 nM
- GI50 [13]: > 100000 nM
- TGI [13]: > 100000 nM
- GI50 [14]: > 100000 nM
- TGI [14]: > 100 µM
- GI50 [15]: > 100000 nM
- TGI [15]: > 100000 nM
- GI50 [17]: 87.2 µM
- TGI [17]: > 100000 nM
- GI50 [18]: 4240 nM
- TGI [18]: > 100000 nM
- GI50 [19]: 18.4 µM
- TGI [19]: > 100000 nM
- GI50 [20]: 5320 nM
- TGI [20]: > 100000 nM
- GI50 [21]: > 100000 nM
- TGI [21]: > 100000 nM
- GI50 [22]: 3110 nM
- TGI [22]: > 100 µM
- GI50 [23]: 16.4 µM
- TGI [23]: > 100000 nM
- GI50 [24]: 7.34 µM
- TGI [24]: > 100000 nM
- GI50 [25]: 77.4 µM
- TGI [25]: > 100000 nM
- GI50 [26]: 21.8 µM
- TGI [26]: > 100 µM
- GI50 [27]: 6.43 µM
- TGI [27]: > 100 µM
- GI50 [28]: 3850 nM
- TGI [28]: 85.5 µM
- GI50 [29]: > 100000 nM
- TGI [29]: > 100000 nM
- GI50 [30]: 4330 nM
- TGI [30]: > 100 µM
- GI50 [31]: 8.8 µM
- TGI [31]: > 100 µM
- GI50 [32]: > 100000 nM
- TGI [32]: > 100000 nM
- GI50 [33]: 24.4 µM
- TGI [33]: > 100000 nM
- GI50 [34]: 3840 nM
- TGI [34]: > 100000 nM
- GI50 [35]: > 100000 nM
- TGI [35]: > 100000 nM
- GI50 [36]: 9.96 µM
- TGI [36]: 25.7 µM
- GI50 [37]: 99.7 µM
- TGI [37]: > 100000 nM
- GI50 [38]: 4020 nM
- TGI [38]: > 100 µM
- GI50 [39]: > 100000 nM
- TGI [39]: > 100000 nM
- GI50 [40]: > 100000 nM
- TGI [40]: > 100000 nM
- GI50 [41]: 9.85 µM
- TGI [41]: > 100000 nM
- GI50 [42]: 3370 nM
- TGI [42]: 13.7 µM
- GI50 [43]: 9.5 µM
- TGI [43]: > 100000 nM
- GI50 [44]: 5.12 µM
- TGI [44]: > 100 µM
- GI50 [45]: 15 µM
- TGI [45]: > 100000 nM
- GI50 [46]: > 100000 nM
- TGI [46]: > 100 µM
- GI50 [47]: 40.4 µM
- TGI [47]: > 100 µM
- GI50 [48]: 61.4 µM
- TGI [48]: > 100000 nM
- GI50 [49]: 12 µM
- TGI [49]: 63.8 µM
- GI50 [50]: 6.49 µM
- TGI [50]: > 100000 nM
- GI50 [52]: 5.81 µM
- TGI [52]: 20.5 µM
- GI50 [53]: 74.6 µM
- TGI [53]: > 100000 nM
- GI50 [54]: > 100000 nM
- TGI [54]: > 100 µM
- GI50 [55]: 5.76 µM
- TGI [55]: > 100000 nM
- GI50 [56]: 31.5 µM
- TGI [56]: > 100000 nM
- GI50 [57]: 11.7 µM
- TGI [57]: > 100000 nM
- GI50 [58]: 8.82 µM
- TGI [58]: > 100000 nM
